According to publication PMC10222203 (Pharmaceutics, 2023):
pIC50: −log10 of the molar value.

What was measured:
dynamin = system: dynamin; design: method as in PMID 16740485, PMID 24491918; conditions: cited from earlier work
[1] = system: brain-like endothelial cells (BLECs); assay: in vitro; conditions: control, absence of peptide (0 nM)
Method: The in vitro BBB model, consisting of CD34^+ endothelial cells (ECs) derived from hematopoietic stem cells in co-culture with bovine brain pericytes, was established as described by Cecchelli et al.. Written and informed consent was obtained for the collection of human umbilical cord blood, in compliance with French legislation. […] All experiments were carried out in line with the authorized protocol.
These isolated CD34+ cells were cultured in EGM-2, supplemented with 20% (v:v) FBS and 50 ng/mL vascular endothelial growth factor on 1% (w:v) gelatine-coated 24-well plates (2 × 10^5 cells/well). After 15–20 days, ECs are seen in the culture dish. For each experiment, the cells were expanded in 1% (w:v) gelatine-coated T75 flasks (BD Biosciences, Le Pont-de-Claix, France) in EGM-2. Bovine brain pericytes were isolated and characterized as described by Vandenhaute et al.. Sub-clones were cultured in Dulbecco’s Modified Eagle’s Medium supplemented with 20% (v:v) FBS, 2 mM L-glutamine, 50 µg/mL gentamycin, and 1 ng/mL basic fibroblast growth factor. At confluency, 5 × 10^4 cells were seeded in ECM-5 with 5% (v:v) FBS, 50 µg/mL gentamycin, and 0.5% endothelial cell growth factor in gelatine-coated 12-well plates (Costar, Corning Inc., New York, NY, USA). CD34^+-derived ECs were seeded at 8 × 10^4 cells per Matrigel-coated (BD Biosciences) insert (3401, Corning Inc., NY, USA) and put in co-culture with the bovine brain pericytes, with the pericytes at the bottom of the well, for 6 days to achieve brain-like endothelial cell (BLEC) characteristics (Figure 4b).
At the beginning of the permeability experiments, inserts with BLEC monolayers were transferred to new abluminal (receiver) compartments previously filled with 1.5 mL of RH buffer, and 500 µL of the compounds dissolved in RH buffer, with the addition of the paracellular marker sodium fluorescein (NaFlu), were added to the luminal (donor) compartment. After 3 h of incubation at 37 °C, with a shaking velocity of 60 rpm, aliquots were taken from the donor and receiver compartment. The BLEC monolayers were washed twice with cold RH buffer and lysed with RLT Lysis buffer. The samples were kept at −20 °C pending analysis in low-binding tubes.
An increase in the permeability to NaFlu in the presence of the peptide can indicate an increase in paracellular leakage and consequent loss of barrier integrity. To evaluate the ability of test compounds to cross Matrigel-coated filters without cells and to control for the adsorption to plastics and/or Matrigel, the NaFlu and peptide’s permeability over inserts without cells were also assessed. Mass balance (M.B%) was calculated from the amount of compound recovered in both compartments at the end of the experiment divided by the total amount added to the donor compartment at the start of the experiment.
Samples from both compartments as well as the lysed endothelial cells were analysed for fluorescence using a Synergy H1 (Biotek) set to quantify NaFlu (wavelengths Excitation 490 nm and Emission 525 nm) and with UPLC-MS/MS to assess the permeability and cellular uptake of the peptides. All experiments were performed in triplicate (n = 3 independent experiments per concentration and cCPPs).
Papp is the apparent permeability, J is the rate of appearance of the compound in the receiver compartment (amount/sec), and C0 is the concentration in the donor compartment at the start of the experiment (amount/mL).

Compound	Decrease in dynamin activity (dynamin; 50 µM)	pIC50 (dynamin)	Permeability (Pe) to sodium fluorescein, mean [1]
O=C(N/N=C/c1ccc(O)c(O)c1)c1cc2ccccc2cc1O [Dynasore, dynasore]	70%	4.82	–
O=C([O-])c1ccccc1-c1c2ccc(=O)cc-2oc2cc([O-])ccc12.[Na+].[Na+] [sodium fluorescein, reference compound]	–	–	0,46 10‐3 cm/min
